The record followed here is ChEMBL document CHEMBL6109089, “Design, synthesis and optimization of Apcin analogues as Cdc20 inhibitors for triple-negative breast cancer therapy” (Eur J Med Chem, 2025).

The test system of one data set is MDA-MB-231. The experiment in a line: cells. The note with it: Homo sapiens, MDA-MB-231, 48 h.
The next data set concerns HeLa. The experiment in a line: cells. The conditions noted are these: Homo sapiens, 48 h.
Another data set concerns SiHa. Description: cells. The conditions noted are these: Homo sapiens, 48 h.
Data set [1] in a line: Antiproliferative activity against human MCF-10A cells assessed as inhibition of cell growth measured after 48 hrs by CCK-8 method. The format is toxicity, cell-based.
The nature of data set [2]: Antiproliferative activity against human HK-2 cells assessed as inhibition of cell growth measured after 48 hrs by CCK-8 method. It counts as toxicity, cell-based.
The test system of a further data set is MDA-MB-436. Description: cells. The note with it: Homo sapiens, MDA-MB-436, 48 h.
A short description of data set [3]: Selectivity index, ratio of IC50 for antiproliferative activity against human MCF-10A cells to IC50 for antiproliferative activity against human MDA-MB-231 cells. The format is toxicity, cell-based. The note with it: MCF-10A cells and MDA-MB-231 cells, read-out: Ratio IC50.
The nature of data set [4]: Antiproliferative activity against rat H9c2 cells assessed as inhibition of cell growth measured after 48 hrs by CCK-8 method. The format is toxicity, cell-based.
Data set [5] in a line: Selectivity index, ratio of IC50 for antiproliferative activity against human MCF7 cells to IC50 for antiproliferative activity against human MDA-MB-231 cells. The format is cell-based.
The next data set concerns MCF7. Description: cells. The note with it: Homo sapiens, MCF7, 48 h.

Each structure is given as a SMILES string.

Description for HeLa: Antiproliferative activity against human HeLa cells assessed as inhibition of cell growth measured after 48 hrs by CCK-8 method
Description for MCF7: Antiproliferative activity against human MCF7 cells assessed as inhibition of cell growth measured after 48 hrs by CCK-8 method
Description for MDA-MB-231: Antiproliferative activity against human MDA-MB-231 cells assessed as inhibition of cell growth measured after 48 hrs by CCK-8 method
Description for MDA-MB-436: Antiproliferative activity against human MDA-MB-436 cells assessed as inhibition of cell growth measured after 48 hrs by CCK-8 method
Description for SiHa: Antiproliferative activity against human SiHa cells assessed as inhibition of cell growth measured after 48 hrs by CCK-8 method

The compound `O=C(NC(Nc1nc(Cl)cc(Nc2ccc(C(F)(F)F)cc2)n1)C(Cl)(Cl)Cl)OCCNC(=O)c1csc(Cl)n1` (configuration not stated) came in with an IC50 in the data set on MDA-MB-231 of 7.27 µM. In turn, `Cc1ncc([N+](=O)[O-])n1CCOC(=O)NC(Nc1nc(Cl)cc(Nc2ccc(OC(F)(F)F)cc2)n1)C(Cl)(Cl)Cl` (configuration not stated) had a 50% inhibitory concentration (IC50) in the data set on MDA-MB-231 of 5.65 µM.

In the case of `O=C(NC(Nc1nc(Cl)cc(Nc2ccc(C(F)(F)F)cc2)n1)C(Cl)(Cl)Cl)OCc1ccccc1` (configuration not stated), the 50% inhibitory concentration (IC50) with MDA-MB-231 was 7.63 µM. As to `Cc1ncc([N+](=O)[O-])n1CCOC(=O)NC(Nc1nc(Cl)cc(Nc2ccc(F)cc2)n1)C(Cl)(Cl)Cl` (configuration not stated), the concentration for half-maximal inhibition (IC50) in the data set on MDA-MB-231 came out at 8.13 µM.

Compound `Cn1ccnc1C(=O)NCCOC(=O)NC(Nc1nc(Cl)cc(Nc2ccc(C(F)(F)F)cc2)n1)C(Cl)(Cl)Cl` (configuration not stated) returned a concentration for half-maximal inhibition (IC50) in the data set on MDA-MB-231 of 7.22 µM.

In the data set with MDA-MB-231, `Cc1ncc([N+](=O)[O-])n1CCOC(=O)NC(Nc1nc(Cl)cc(Nc2cccc(C#N)c2)n1)C(Cl)(Cl)Cl` (configuration not stated) came in with an IC50 of 16.2 µM.

Turning to `Cc1ncc(C(=O)NCCOC(=O)NC(Nc2nc(Cl)cc(Nc3ccc(C(F)(F)F)cc3)n2)C(Cl)(Cl)Cl)s1` (configuration not stated), the IC50 in the data set on MDA-MB-231 came out at 4.36 µM. For `CCN(CC)c1cc(Cl)nc(NC(NC(=O)OCCn2c([N+](=O)[O-])cnc2C)C(Cl)(Cl)Cl)n1` (configuration not stated), the IC50 in the data set with HeLa was 38.9 µM; in the data set with MDA-MB-231 it was 16.2 µM; in the data set with SiHa, 35.7 µM. In turn, `Cc1ncc([N+](=O)[O-])n1CCOC(=O)NC(Nc1nc(Cl)cc(Nc2ccccc2F)n1)C(Cl)(Cl)Cl` (configuration not stated) returned an IC50 with MDA-MB-231 of 16 µM.

For the compound `Cc1ncc([N+](=O)[O-])n1CCOC(=O)NC(Nc1nc(N)cc(F)n1)C(Cl)(Cl)Cl` (configuration not stated), the half-inhibitory concentration (IC50) in the data set with HeLa is 65.4 µM; with MDA-MB-231, greater than 100 µM; with SiHa it was greater than 100 µM. Consider `Cc1ncc([N+](=O)[O-])n1CCOC(=O)NC(Nc1nc(Cl)cc(Nc2cccc(C(F)(F)F)c2)n1)C(Cl)(Cl)Cl` (configuration not stated), for which the half-maximal inhibitory concentration (IC50) in the data set with MDA-MB-231 was found to be 6.01 µM. As to `Cc1ncc([N+](=O)[O-])n1CCOC(=O)NC(Nc1nc(Cl)cc(-c2ccccc2)n1)C(Cl)(Cl)Cl` (configuration not stated), the values for the IC50 with HeLa, in the data set with MDA-MB-231 and with SiHa were 33.2 µM, 18.5 µM and 41.4 µM, respectively. Compound `O=C(NC(Nc1nc(Cl)cc(Nc2ccc(C(F)(F)F)cc2)n1)C(Cl)(Cl)Cl)OCCNC(=O)c1cnc(Cl)s1` (configuration not stated) displayed an IC50 in the data set with MDA-MB-231 of 3.89 µM. Still for that read-out and setting: as for `O=C(NC(Nc1nc(Cl)cc(Nc2ccc(C(F)(F)F)cc2)n1)C(Cl)(Cl)Cl)OCCCc1ccncc1` (configuration not stated), the figure is 7.27 µM; as for `O=C(NC(Nc1nc(Cl)cc(Nc2ccc(C(F)(F)F)cc2)n1)C(Cl)(Cl)Cl)OCCCc1cccnc1` (configuration not stated), 13.8 µM.

Regarding `Cc1ncc([N+](=O)[O-])n1CCOC(=O)NC(Nc1nc(Cl)cc(Nc2ccc(C(F)(F)F)cc2)n1)C(Cl)(Cl)Cl` (configuration not stated), the IC50 at 48 h stood at 3.7 µM in [1], 10.1 µM in data set [2] and 22.5 µM in data set [4]. Also, the results for the IC50 in the data set with MDA-MB-436, with MCF7 and with MDA-MB-231 were 4.6 µM, 7.42 µM and 3.98 µM, respectively. Moreover, the selectivity ratio in data set [3] came out at 0.93. Moreover, in data set [5], the “Ratio IC50” value turned out to be 1.86. In the data set on MDA-MB-231, `O=C(NC(Nc1nc(Cl)cc(Nc2ccc(C(F)(F)F)cc2)n1)C(Cl)(Cl)Cl)OCCCc1ccccn1` (configuration not stated) yielded a concentration for half-maximal inhibition (IC50) of 11.1 µM.

In the case of `Cc1ncc([N+](=O)[O-])n1CCOC(=O)NC(Nc1nc(Nc2ccc(C(F)(F)F)cc2)cc(C(F)(F)F)n1)C(Cl)(Cl)Cl` (configuration not stated), the half-maximal inhibitory concentration (IC50) in the data set with MDA-MB-231 came to 5.23 µM. Same read-out and setting: as for `Cc1ncc([N+](=O)[O-])n1CCOC(=O)NC(Nc1nc(Cl)cc(Nc2ccc(C#N)cc2)n1)C(Cl)(Cl)Cl` (configuration not stated), the figure is 11 µM; as for `Cc1cccc(Nc2cc(Cl)nc(NC(NC(=O)OCCn3c([N+](=O)[O-])cnc3C)C(Cl)(Cl)Cl)n2)c1` (configuration not stated), 7.79 µM; as for `Cc1ncc([N+](=O)[O-])n1CCOC(=O)NC(Nc1nc(Cl)cc(Nc2cccc(F)c2)n1)C(Cl)(Cl)Cl` (configuration not stated), 8.67 µM. Still for that read-out and setting: as for `Cc1ccc(Nc2cc(Cl)nc(NC(NC(=O)OCCn3c([N+](=O)[O-])cnc3C)C(Cl)(Cl)Cl)n2)cc1` (configuration not stated), the figure is 7.62 µM; as for `O=C(NC(Nc1nc(Cl)cc(Nc2ccc(C(F)(F)F)cc2)n1)C(Cl)(Cl)Cl)OCCCCc1ccccc1` (configuration not stated), 7.21 µM; as for `O=C(NC(Nc1nc(Cl)cc(Nc2ccc(C(F)(F)F)cc2)n1)C(Cl)(Cl)Cl)OCCc1ccccn1` (configuration not stated), 5.34 µM.

Compound `Cc1ncc([N+](=O)[O-])n1CCOC(=O)NC(Nc1nc(Cl)cc(Nc2cccc(OC(F)(F)F)c2)n1)C(Cl)(Cl)Cl` (configuration not stated) gave an IC50 with MDA-MB-231 of 6.76 µM. For the compound `CNc1cc(Cl)nc(NC(NC(=O)OCCn2c([N+](=O)[O-])cnc2C)C(Cl)(Cl)Cl)n1` (configuration not stated), the values for the IC50 in the data set with HeLa, in the data set with MDA-MB-231 and in the data set with SiHa were 72.3 µM, 56.7 µM and 56.6 µM, respectively. Turning to `O=C(NC(Nc1nc(Cl)cc(Nc2ccc(C(F)(F)F)cc2)n1)C(Cl)(Cl)Cl)OCCc1ccncc1` (configuration not stated), the IC50 in the data set on MDA-MB-231 was determined as 7.52 µM. As to `Cc1cc(N)nc(NC(NC(=O)OCCn2c([N+](=O)[O-])cnc2C)C(Cl)(Cl)Cl)n1` (configuration not stated), the concentration for half-maximal inhibition (IC50) in the data set on HeLa, with MDA-MB-231 and with SiHa was greater than 100 µM each time. Turning to `Cc1ncc([N+](=O)[O-])n1CCOC(=O)NC(Nc1nc(Cl)cc(N(C)C)n1)C(Cl)(Cl)Cl` (configuration not stated), the IC50 was determined as 70.2 µM in the data set with HeLa, 36.4 µM in the data set on MDA-MB-231 and 47.4 µM with SiHa. For `COc1cc(N)nc(NC(NC(=O)OCCn2c([N+](=O)[O-])cnc2C)C(Cl)(Cl)Cl)n1` (configuration not stated), in that order: greater than 100 µM, greater than 100 µM and 89.4 µM.

`Cc1ncc([N+](=O)[O-])n1CCOC(=O)NC(Nc1ncc(Cl)c(Nc2ccc(C(F)(F)F)cc2)n1)C(Cl)(Cl)Cl` (configuration not stated) gave an IC50 with MDA-MB-231 of 4.19 µM.

As for `Cc1ncc([N+](=O)[O-])n1CCOC(=O)NC(Nc1nc(Cl)cc(Nc2ccccc2)n1)C(Cl)(Cl)Cl` (configuration not stated), the IC50 at 48 h in data set [1] amounted to 22.5 µM; in [2], 18.3 µM; in data set [4] it was 15.1 µM. Moreover, the IC50 in the data set on MDA-MB-436 worked out at 13.7 µM; with HeLa, 19.6 µM; with MCF7 it was 9 µM; with MDA-MB-231, 14.1 µM; in the data set with SiHa, 24.4 µM.

For the compound `Cc1ncc([N+](=O)[O-])n1CCOC(=O)NC(Nc1nc(N)cc(Cl)n1)C(Cl)(Cl)Cl` (configuration not stated), the values for the half-maximal inhibitory concentration (IC50) in the data set on HeLa, in the data set on MDA-MB-231 and with SiHa were 45 µM, greater than 100 µM and 39 µM, respectively.

Consider `Cc1ncc([N+](=O)[O-])n1CCOC(=O)NC(Nc1ncc(Br)c(Nc2ccc(C(F)(F)F)cc2)n1)C(Cl)(Cl)Cl` (configuration not stated), for which 4.58 µM corresponded to half-maximal inhibition in the data set with MDA-MB-231 (IC50). As for `O=C(NC(Nc1nc(Cl)cc(Nc2ccc(C(F)(F)F)cc2)n1)C(Cl)(Cl)Cl)OCCCc1ccccc1` (configuration not stated), in the data set on MDA-MB-231, the IC50 was 6.69 µM. Same read-out and setting: as for `O=C(NC(Nc1nc(Cl)cc(Nc2ccc(C(F)(F)F)cc2)n1)C(Cl)(Cl)Cl)OCCc1ccccc1` (configuration not stated), the figure is 6.61 µM; as for `O=C(NC(Nc1nc(Cl)cc(Nc2ccc(C(F)(F)F)cc2)n1)C(Cl)(Cl)Cl)OCCc1cccnc1` (configuration not stated), 13.8 µM.
